# Measured values published in patent publication US20100129432A1, “MICROORGANISM-KILLING COMBINATION” (TAIPEI MEDICAL UNIVERSITY, priority 2008, published 2010).
# Tests used:
# [1] = test system: Staphylococcus aureus (BCRC 10780); experiment: Rose Bengal, Methylene Blue and Chlorin e6 mediated PDI with or without chitosan, survival fraction; assay type: cell-based
# [2] = test system: Candida albicans; experiment: Toluidine blue or Methylene Blue mediated PDI with or without 0.6% chitosan, survival fraction; conditions: for PDI effect (survival fraction): 0.5 mM photosensitizer, 630±5 nm LED 50 J/cm^2, without chitosan; for survival fraction of Candida albicans: 0.6% (w/v) chitosan added after the PDI, 50 J/cm^2
molecule,measurement,setting,value
"CN(C)c1ccc2nc3ccc(=[N+](C)C)cc-3sc2c1 [MB, methylene blue]",PDI effect (survival fraction),"[1]; 2 μM MB, 0 J/cm^2, without chitosan",ineffective
same,PDI effect (survival fraction),"[1]; 2 μM MB, 0.025% (w/v) chitosan",significantly enhanced
same,PDI effect (survival fraction),"[1]; 2 μM MB, 0.025% (w/v) chitosan, 10-20 J/cm^2",complete eradication
same,PDI effect (survival fraction),"[1]; 2 μM MB, 5 J/cm^2, without chitosan",slightly effective
same,PDI effect (survival fraction),"[1]; 2 μM MB, 10-20 J/cm^2, without chitosan",apparently more effective than the lower dose
same,PDI effect (survival fraction),[2],partially effective
same,survival fraction of Candida albicans,[2],greatly reduced
"O=C1OC2(c3cc(I)c(O)c(I)c3Oc3c2cc(I)c(O)c3I)c2c(Cl)c(Cl)c(Cl)c(Cl)c21 [RB, Rose Bengal]",PDI effect (survival fraction),"[1]; 0.025 μM RB, 25 J/cm^2, 0.025% chitosan",complete removal of the bacteria
same,PDI effect (survival fraction),"[1]; 0.025 μM RB, 25 J/cm^2, without chitosan",not able to result in complete eradication
"Cc1cc2nc3ccc(N(C)C)cc3[s+]c2cc1N.[Cl-] [TB, toluidine blue]",PDI effect (survival fraction),[2],partially effective
same,survival fraction of Candida albicans,[2],greatly reduced
chlorine e6 [Ce6],PDI effect (survival fraction),"[1]; 0.05 μM Ce6, 0.1% (w/v) chitosan, 10 J/cm^2",complete eradication
same,PDI bacterial killing effect,"[1]; 0.05 μM Ce6 with chitosan, concentration dependent manner (0.01-0.1 μM)",significantly enhance
